In PubChem BioAssay AID330 (DTP/NCI, 2004):
Values joined by “and” are separate entries in the source; they are usually repeats but may differ in a detail not shown here. Identical values can stand only once. Toxic doses and inconclusive results are not listed.

Test system: P388 leukemia ip, CD2F1 mice, survival T/C
Assay: NCI In Vivo Anticancer Drug Screen. Data for tumor model P388 Leukemia (intraperitoneal) in CD2F1 (CDF1) mice
Conditions: endpoint: median survival time, higher = longer survival
Summary of the method: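 Mice carrying the transplanted tumor received test compound or vehicle. Survival was recorded in each group, and the value is the treated-group measurement divided by that of the vehicle-treated control group.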

[1] = dose: 1.56 mg/kg/injection, schedule: Q01DX009 (ip), vehicle: saline with Tween-80
[2] = dose: 3.12 mg/kg/injection, schedule: Q01DX009 (ip), vehicle: saline with Tween-80
[3] = dose: 6.25 mg/kg/injection, schedule: Q01DX009 (ip), vehicle: saline with Tween-80
[4] = dose: 12.5 mg/kg/injection, schedule: Q01DX009 (ip), vehicle: saline with Tween-80
[5] = dose: 100.0 mg/kg/injection, schedule: Q01DX009 (ip), vehicle: saline with Tween-80
[6] = dose: 50.0 mg/kg/injection, schedule: Q01DX009 (ip), vehicle: saline
[7] = dose: 100.0 mg/kg/injection, schedule: Q01DX009 (ip), vehicle: saline
[8] = dose: 100.0 mg/kg/injection, schedule: Q01DX001 (ip), vehicle: saline with Tween-80
[9] = dose: 200.0 mg/kg/injection, schedule: Q01DX001 (ip), vehicle: saline with Tween-80
[10] = dose: 25.0 mg/kg/injection, schedule: Q01DX009 (ip), vehicle: saline
[11] = dose: 200.0 mg/kg/injection, schedule: Q01DX009 (ip), vehicle: saline
[12] = dose: 50.0 mg/kg/injection, schedule: Q01DX005 (ip), vehicle: saline with Tween-80
[13] = dose: 200.0 mg/kg/injection, schedule: Q01DX005 (ip), vehicle: saline with Tween-80
[14] = dose: 12.5 mg/kg/injection, schedule: Q01DX009 (ip), vehicle: saline
[15] = dose: 100.0 mg/kg/injection, schedule: Q01DX005 (ip), vehicle: saline with Tween-80

## CC1=CCC(C(C)(O)C2CCC3(C)C4=C(C=C5C=CC(=O)OC(C)(C)C5CC4)CCC23C)OC1=O (stereo not given)
dose: 12.5 mg/kg/injection, schedule: Q01DX005 (ip), vehicle: other
  T/C: 94 % of control
dose: 25.0 mg/kg/injection, schedule: Q01DX005 (ip), vehicle: other
  T/C: 92 % of control

## Cc1cc([N+](=O)[O-])cc(Cl)n1
dose: 3.12 mg/kg/injection, schedule: Q01DX009 (ip), vehicle: Klucel (hydroxypropylcellulose) (HPC)
  T/C: 106 % of control
dose: 6.25 mg/kg/injection, schedule: Q01DX009 (ip), vehicle: Klucel (hydroxypropylcellulose) (HPC)
  T/C: 99 % of control
dose: 12.5 mg/kg/injection, schedule: Q01DX009 (ip), vehicle: Klucel (hydroxypropylcellulose) (HPC)
  T/C: 100 % of control
dose: 25.0 mg/kg/injection, schedule: Q01DX009 (ip), vehicle: Klucel (hydroxypropylcellulose) (HPC)
  T/C: 106 % of control

## CCCCCCCCCCCC(=O)NCCc1ccc(O)c(O)c1
dose: 25.0 mg/kg/injection, schedule: Q04DX003 (ip), vehicle: Klucel (hydroxypropylcellulose) (HPC)
  T/C: 113 % of control
dose: 50.0 mg/kg/injection, schedule: Q04DX003 (ip), vehicle: Klucel (hydroxypropylcellulose) (HPC)
  T/C: 115 % of control
dose: 100.0 mg/kg/injection, schedule: Q04DX003 (ip), vehicle: Klucel (hydroxypropylcellulose) (HPC)
  T/C: 119 % of control and 120 % of control
dose: 200.0 mg/kg/injection, schedule: Q04DX003 (ip), vehicle: Klucel (hydroxypropylcellulose) (HPC)
  T/C: 113 % of control and 120 % of control
dose: 400.0 mg/kg/injection, schedule: Q04DX003 (ip), vehicle: Klucel (hydroxypropylcellulose) (HPC)
  T/C: 89 % of control

## O=C1c2ccccc2C(=O)c2c(NCCN3CCCCC3)ccc(NCCN3CCCCC3)c21
dose: 4.0 mg/kg/injection, schedule: Q01DX009 (ip), vehicle: acid diluted with saline
  T/C: 102 % of control
dose: 8.0 mg/kg/injection, schedule: Q01DX009 (ip), vehicle: acid diluted with saline
  T/C: 100 % of control
dose: 12.5 mg/kg/injection, schedule: Q01DX009 (ip), vehicle: other
  T/C: 98 % of control
dose: 16.0 mg/kg/injection, schedule: Q01DX009 (ip), vehicle: acid diluted with saline
  T/C: 103 % of control
dose: 25.0 mg/kg/injection, schedule: Q01DX009 (ip), vehicle: other
  T/C: 104 % of control
dose: 32.0 mg/kg/injection, schedule: Q01DX009 (ip), vehicle: acid diluted with saline
  T/C: 101 % of control
dose: 50.0 mg/kg/injection, schedule: Q01DX009 (ip), vehicle: other
  T/C: 104 % of control
dose: 64.0 mg/kg/injection, schedule: Q01DX009 (ip), vehicle: acid diluted with saline
  T/C: 104 % of control
dose: 100.0 mg/kg/injection, schedule: Q01DX009 (ip), vehicle: other
  T/C: 121 % of control

## C=C1C(O)C2(O)OCC34C(CC5C(C)=CC(=O)C(O)C5(C)C23)OC(=O)C(OC(=O)C/C=C(\C)CCCCC)C14 (stereo not given)
dose: 2.0 mg/kg/injection, schedule: Q01DX005 (ip), vehicle: saline + alcohol
  T/C: 161 % of control
dose: 4.0 mg/kg/injection, schedule: Q01DX005 (ip), vehicle: saline + alcohol
  T/C: 168 % of control and 169 % of control

## O=C(c1ccccc1)c1c(-c2ccccc2)noc1-c1ccccc1
dose: 100.0 mg/kg/injection, schedule: Q04DX003 (ip), vehicle: saline
  T/C: 109 % of control
dose: 200.0 mg/kg/injection, schedule: Q04DX003 (ip), vehicle: saline
  T/C: 100 % of control
dose: 400.0 mg/kg/injection, schedule: Q04DX003 (ip), vehicle: saline
  T/C: 108 % of control

## CCCCCCCCCCCCCCCCCCCCCC(=O)Nc1ccn(C2OC(CO)C(O)C2O)c(=O)n1 (stereo not given)
[1]
  T/C: 155 % of control
[2]
  T/C: 198 % of control and 209 % of control
[3]
  T/C: 106 % of control and 206 % of control and 235 % of control
[4]
  T/C: 256 % of control and 309 % of control
[5]
  T/C: 195 % of control

## Cc1cc(C)n(-c2nnc(-n3nc(C)cc3C)c3ccccc23)n1
[6]
  T/C: 94 % of control
[7]
  T/C: 87 % of control

## O=C(O)c1nn(-c2ccccc2)c2c1CSc1ccccc1-2
[8]
  T/C: 109 % of control
[9]
  T/C: 104 % of control

## CC[n+]1ccc2c(C)c3[nH]c4ccc(O)cc4c3c(C)c2c1
dose: 1.56 mg/kg/injection, schedule: Q04DX003 (ip), vehicle: saline
  T/C: 165 % of control
dose: 3.12 mg/kg/injection, schedule: Q04DX003 (ip), vehicle: saline
  T/C: 192 % of control
dose: 6.25 mg/kg/injection, schedule: Q04DX003 (ip), vehicle: saline
  T/C: 171 % of control and 223 % of control
dose: 12.5 mg/kg/injection, schedule: Q04DX003 (ip), vehicle: saline
  T/C: 103 % of control and 90 % of control
dose: 25.0 mg/kg/injection, schedule: Q04DX003 (ip), vehicle: saline
  T/C: 90 % of control
dose: 50.0 mg/kg/injection, schedule: Q04DX003 (ip), vehicle: saline
  T/C: 90 % of control

## CCN(CC)Cc1cc(N=Nc2ccc(N(C)C)cc2)ccc1O
[8]
  T/C: 88 % of control
[9]
  T/C: 88 % of control

## NCC(=O)c1ccc(O)c(O)c1
[10]
  T/C: 100 % of control
dose: 25.0 mg/kg/injection, schedule: Q04DX003 (ip), vehicle: saline with Tween-80
  T/C: 108 % of control
[6]
  T/C: 113 % of control
dose: 50.0 mg/kg/injection, schedule: Q04DX003 (ip), vehicle: saline with Tween-80
  T/C: 108 % of control
dose: 100.0 mg/kg/injection, schedule: Q04DX003 (ip), vehicle: saline with Tween-80
  T/C: 104 % of control and 121 % of control

## C/C(=C\C(=N\N=C(N)N)c1ccc(Cl)cc1)c1ccc(Cl)cc1
[3]
  T/C: 118 % of control
[4]
  T/C: 98 % of control

## CC(C)[C@H](N)C(=O)NCCNC(=O)[C@@H](N)C(C)C
dose: 60.0 mg/kg/injection, schedule: Q01DX005 (ip), vehicle: saline
  T/C: 91 % of control
dose: 120.0 mg/kg/injection, schedule: Q01DX005 (ip), vehicle: saline
  T/C: 98 % of control

## CCOC(=O)CS(=O)(=O)CCCCCCCCCCS(=O)(=O)CC(=O)OCC
[6]
  T/C: 102 % of control
[7]
  T/C: 99 % of control
[11]
  T/C: 89 % of control

## c1ccc([Te][Te]c2ccccc2)cc1
[12]
  T/C: 163 % of control
[13]
  T/C: 105 % of control

## CC(C)[N+](C)(C)CC(O)COc1ccccc1-c1ccccc1 (stereo not given)
[14]
  T/C: 100 % of control
[10]
  T/C: 98 % of control
[6]
  T/C: 93 % of control and 97 % of control

## CC(O)C(O)C(O)C(=O)NCc1ccccc1 (stereo not given)
[12]
  T/C: 100 % of control
[15]
  T/C: 94 % of control
[13]
  T/C: 99 % of control

## COc1c2occc2c(NC(=O)C(Cl)Cl)c2ccc(=O)oc12
dose: 2.5 mg/kg/injection, schedule: Q04DX002 (ip), vehicle: saline with Tween-80
  T/C: 101 % of control
dose: 5.0 mg/kg/injection, schedule: Q04DX002 (ip), vehicle: saline with Tween-80
  T/C: 100 % of control
dose: 10.0 mg/kg/injection, schedule: Q04DX002 (ip), vehicle: saline with Tween-80
  T/C: 99 % of control

## CN(C)CCC(=O)c1ccc([N+](=O)[O-])cc1
dose: 25.0 mg/kg/injection, schedule: Q01DX009 (ip), vehicle: saline with Tween-80
  T/C: 94 % of control
dose: 50.0 mg/kg/injection, schedule: Q01DX009 (ip), vehicle: saline with Tween-80
  T/C: 113 % of control
[5]
  T/C: 108 % of control
dose: 200.0 mg/kg/injection, schedule: Q01DX009 (ip), vehicle: saline with Tween-80
  T/C: 106 % of control

## C=CC[P+](Cc1ccccc1)(c1ccccc1)c1ccccc1
dose: 0.78 mg/kg/injection, schedule: Q01DX009 (ip), vehicle: saline
  T/C: 107 % of control
dose: 1.56 mg/kg/injection, schedule: Q01DX009 (ip), vehicle: saline
  T/C: 103 % of control
dose: 3.13 mg/kg/injection, schedule: Q01DX009 (ip), vehicle: saline
  T/C: 96 % of control

## CCNC(=O)OCCN(CC)CC
[6]
  T/C: 103 % of control
[7]
  T/C: 103 % of control
[11]
  T/C: 104 % of control

## C#Cc1cccc(N=Cc2cc(Cl)cc(Cl)c2O)c1
[12]
  T/C: 102 % of control
[15]
  T/C: 102 % of control
[13]
  T/C: 108 % of control

## Cc1cn(CCCn2cnc3cncnc32)c(=O)[nH]c1=O
dose: 50.0 mg/kg/injection, schedule: Q01DX005 (ip), vehicle: suspension in saline
  T/C: 98 % of control
dose: 100.0 mg/kg/injection, schedule: Q01DX005 (ip), vehicle: suspension in saline
  T/C: 105 % of control
dose: 200.0 mg/kg/injection, schedule: Q01DX005 (ip), vehicle: suspension in saline
  T/C: 96 % of control

## CC(C)C(NC(=O)C1CSC(C)(C)N1C=O)C(=O)O (stereo not given)
[12]
  T/C: 102 % of control
[15]
  T/C: 100 % of control
[13]
  T/C: 102 % of control

## C=C1C(=O)O[C@@H]2[C@H](O)[C@@H](C)[C@@H]3C=CC(=O)[C@@]3(C)[C@H](OC(=O)C=C(C)C)[C@H]12
[1]
  T/C: 121 % of control
[2]
  T/C: 120 % of control
dose: 3.12 mg/kg/injection, schedule: Q01DX009 (ip), vehicle: saline
  T/C: 151 % of control
[3]
  T/C: 117 % of control and 121 % of control
[4]
  T/C: 107 % of control and 121 % of control
[14]
  T/C: 150 % of control
